Like-named read-outs stand apart in the source and are kept apart here. Values belong to the compound of their own block, whether it stands above or below them. Bridge positions count the residues as written; N and C are the ends. Peptide text beside a SMILES is read from it.
Biological target: porcine pancreatic elastase (Sus scrofa, UniProt P00772)
Experiment: Elastase inhibitory activity of peptides (AAApNA hydrolysis; IC50, Ki, residual activity)
Format: biochemical
Conditions: for IC50 / Residual activity of elastase: elastase 0.5 μM, AAApNA 1 mM
Method: The inhibition constants of various synthetic active peptide inhibitors (molecular scaffolds) against seine proteases were measured. The substrates N-succinyl-Ala-Ala-Pro-Phe-p-nitroaniline (AAPFpNA), Nα—Benzoyl-L-arginine-4-nitroaniline hydrochloride (BApNA) and N-succinyl-[…] (AAApNA) are used in competitive binding reaction to determine the inhibitory activities against α-chymotrypsin, bovine trypsin, and porcine pancreatic elastase, respectively. Experiments for α-chymotrypsin and bovine trypsin inhibition were measured in 20 mM CaCl2, 50 mM Tris-HCl buffer (pH 7.8), and that for porcine elastase inhibition was measured in 50 mM Tris-HCl buffer (pH 8.0). The concentration of the peptide was measured using optical density (OD) at 280 nm. The Michaelis constant (Km) of the enzyme hydrolysis substrate is calculated from the initial rate of substrate hydrolysis at 405 nm. The absorbance value of the substrate was measured at 405 nm after complete hydrolysis. All data were processed using nonlinear regression.
• (1) Added a total 198 μL of reaction buffer (20 mM CaCl2, 50 mM Tris-HCl (pH 8.0)) into the 96 well plate, followed by preheating at 37° C. for 15 min. Then added 2 μL of different concentrations of substrates (pNA, dissolved in DMSO), and mixed by centrifugation at 500 rpm for 1 min. Finally, the plate was incubated at 37° C. for 30 min, and the absorbance value at 405 nm was measured. In the 200 μL of reaction system, the final concentrations of pNA were 0, 0.025, 0.05, 0.075, 0.1, 0.125, 0.15, 0.175, and 0.2 mM, respectively. Make three repetitions for each concentration and plot the OD405 m value with pNA concentration to obtain the standard curve. • (2) Added a total 190 μL of reaction buffer (20 mM CaCl2, 50 mM Tris-HCl (pH 8.0)) and 8 μL of 4.375 μM elastase into the 96 well plate, followed by preheating at 37° C. for 5 min. Then added 2 μL of different concentrations of substrates (AAApNA, dissolved in DMSO), and mixed by centrifugation at 500 rpm for 1 min. Finally, the plate was incubated at 37° C. for 30 min, and the absorbance value at 405 nm was measured. In the 200 μL of reaction system, the final concentrations of AAApNA were 0, 0.125, 0.166, 0.2, 0.25, 0.33, 0.6, 0.75, and 1.25 mM, respectively. Make three repetitions for each concentration and plot the OD405 nm value with time to obtain the corresponding curve. Divide the slope of the curve by the slope of the standard curve and the enzyme concentration to obtain the initial velocity V0 (mM/(min*mM protein). Plot the initial velocity V0 with the concentration of substrate AAApNA using Prism software, and the Michaelis constant Km value of elastase hydrolyzing AAApNA was obtained.
• (1) Added a total 190 μL of different concentrations of peptides (ECs) against elastase and reaction buffer (20 mM CaCl2, 50 mM Tris-HCl buffer (pH 8.0)) into the pre-cold 96 well plate, followed by preheating at 37° C. for 5 min and centrifugated at 500 rpm for 1 min and allowed to stand for 4 minutes. Then added 8 μL of 12.5 μM elastase and incubated at 37° C. for 10 min and centrifugated at 500 rpm for 1 min and allowed to stand for 9 minutes. Finally, added 2 μL of 100 mM AAApNA, and mixed by centrifugation at 500 rpm for 1 min. The plate was incubated at 37° C. for 60 min, and the absorbance value at 405 nm was measured. Three repetitions were made, and only reaction buffer and substrate were added in the blank control as the minimum absorption value (Min OD405 nm); Only reaction buffer, enzyme and substrate were added in the negative control as the maximum absorption value (Max OD405 nm). • (2) In the 200 μL of reaction system, the final concentrations of elastase and AAApNA were 0.5 μM and 1 mM, respectively. • (3) Data statistics
Residual activity of enzyme (%)=(1−(Max OD405 nm−Sample OD405 nm)/(Max OD405 nm−Min OD405 nm))*100 […]

Sequence of porcine pancreatic elastase (P00772 27-266): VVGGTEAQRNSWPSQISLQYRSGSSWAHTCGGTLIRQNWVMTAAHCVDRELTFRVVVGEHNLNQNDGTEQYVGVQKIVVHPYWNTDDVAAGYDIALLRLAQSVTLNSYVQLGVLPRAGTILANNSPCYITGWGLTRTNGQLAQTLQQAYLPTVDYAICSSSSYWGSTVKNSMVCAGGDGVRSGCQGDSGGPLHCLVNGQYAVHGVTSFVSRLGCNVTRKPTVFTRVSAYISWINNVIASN

Compound: CC[C@H](C)[C@@H]1NC(=O)[C@H](CO)NC(=O)[C@H](C)NC(=O)[C@H]([C@@H](C)O)NC(=O)[C@H](CCC(=O)O)NC(=O)[C@H](CCCNC(=N)N)NC(=O)CNC(=O)[C@@H](N)CSSC[C@@H](C(=O)O)NC(=O)[C@H](CCCCN)NC(=O)[C@H](CCC(N)=O)NC(=O)[C@@H]2CCCN2C(=O)[C@@H]2CCCN2C1=O [EC10] (H-CGRETASIPPQKC-OH; disulfide 1-13; N-terminus and C-terminus assumed)
IC50: > 50 µM

Compound: CC[C@H](C)[C@@H]1NC(=O)[C@@H]2CCCN2C(=O)[C@@H]2CCCN2C(=O)[C@H]([C@@H](C)CC)NC(=O)[C@H](CO)NC(=O)[C@H](C)NC(=O)[C@H]([C@@H](C)O)NC(=O)[C@@H](NC(=O)[C@@H](N)CC(C)C)CSSC[C@@H](C(=O)N[C@@H](CCC(N)=O)C(=O)O)NC1=O [EC12] (H-LCTASIPPICQ-OH; disulfide 2-10; N-terminus and C-terminus assumed)
inhibitory activity against elastase (in words): better inhibitory activity against Elastase
IC50: 0.4 µM
Residual activity of elastase (peptide 0.001 μM): 98.8 ± 1.1%
Residual activity of elastase (peptide 0.01 μM): 97.8 ± 1.0%
Residual activity of elastase (peptide 0.06 μM): 98.2 ± 2.1%
Residual activity of elastase (peptide 0.25 μM): 72.2 ± 5.9%
Residual activity of elastase (peptide 0.3 μM): 59.9 ± 3.2%
Residual activity of elastase (peptide 0.75 μM): 25.1 ± 3.6%
Residual activity of elastase (peptide 1 μM): 12.7 ± 1.0%
Residual activity of elastase (peptide 10 μM): 1.3 ± 0.1%
Residual activity of elastase (peptide 100 μM): 0.2 ± 0.0%
Residual activity of elastase (peptide 1000 μM): 0.3 ± 0.0%
Ki (read-out: Ki against elastase): 0.11 µM

Compound: CC[C@H](C)[C@H](N)C(=O)N[C@H]1CSSC[C@@H](C(=O)N[C@H](C(=O)O)C(C)C)NC(=O)[C@H](CCC(N)=O)NC(=O)[C@H](C)NC(=O)[C@@H]2CCCN2C(=O)[C@H]([C@@H](C)CC)NC(=O)[C@H](CO)NC(=O)[C@H](CC(C)C)NC(=O)[C@H]([C@@H](C)O)NC1=O [EC13] (H-ICTLSIPAQCV-OH; disulfide 2-10; N-terminus and C-terminus assumed)
IC50: > 50 µM

Compound: CC[C@H](C)[C@@H]1NC(=O)[C@@H]2CCCN2C(=O)[C@@H]2CCCN2C(=O)[C@H]([C@@H](C)CC)NC(=O)[C@H](CO)NC(=O)[C@H](CC(C)C)NC(=O)[C@H]([C@@H](C)O)NC(=O)[C@H](C)NC(=O)[C@H](CC(C)C)NC(=O)CNC(=O)CNC(=O)[C@@H](N)CSSC[C@@H](C(=O)N[C@@H](CCC(N)=O)C(=O)O)NC1=O [EC17] (H-CGGLATLSIPPICQ-OH; disulfide 1-13)
IC50: > 50 µM

Compound: CC[C@H](C)[C@@H]1NC(=O)[C@H](CO)NC(=O)[C@H](C)NC(=O)[C@H]([C@@H](C)O)NC(=O)[C@@H](NC(=O)[C@@H](N)CC(C)C)CSSC[C@@H](C(=O)N[C@@H](CCC(N)=O)C(=O)O)NC(=O)[C@H](CCC(N)=O)NC(=O)[C@@H]2CCCN2C(=O)[C@@H]2CCCN2C1=O [EC18] (H-LCTASIPPQCQ-OH; disulfide 2-10; N-terminus and C-terminus assumed)
Residual activity of elastase (peptide 0.001 μM): 99.2 ± 2.0%
Residual activity of elastase (peptide 0.01 μM): 100.6 ± 1.5%
Residual activity of elastase (peptide 0.1 μM): 97.0 ± 4.0%
Residual activity of elastase (peptide 0.2 μM): 100.2 ± 2.0%
Residual activity of elastase (peptide 0.4 μM): 90.3 ± 0.5%
Residual activity of elastase (peptide 0.6 μM): 73.5 ± 4.8%
Residual activity of elastase (peptide 1 μM): 49.4 ± 3.3%
Residual activity of elastase (peptide 6 μM): 8.4 ± 0.4%
Residual activity of elastase (peptide 10 μM): 3.6 ± 0.5%
Residual activity of elastase (peptide 100 μM): 0.1 ± 0.0%

Compound: CC[C@H](C)[C@H](N)C(=O)N[C@H]1CSSC[C@@H](C(=O)N[C@@H](CCC(N)=O)C(=O)O)NC(=O)[C@H](CCC(N)=O)NC(=O)[C@@H]2CCCN2C(=O)[C@@H]2CCCN2C(=O)[C@H]([C@@H](C)CC)NC(=O)[C@H](CO)NC(=O)[C@H](C)NC(=O)[C@H]([C@@H](C)O)NC1=O [EC19] (H-ICTASIPPQCQ-OH; disulfide 2-10; N-terminus and C-terminus assumed)
Residual activity of elastase (peptide 0.001 μM): 99.9 ± 0.5%
Residual activity of elastase (peptide 0.01 μM): 99.4 ± 0.1%
Residual activity of elastase (peptide 0.1 μM): 96.1 ± 0.9%
Residual activity of elastase (peptide 0.5 μM): 81.2 ± 4.1%
Residual activity of elastase (peptide 1 μM): 52.1 ± 1.8%
Residual activity of elastase (peptide 2 μM): 29.8 ± 0.8%
Residual activity of elastase (peptide 4 μM): 15.5 ± 0.3%
Residual activity of elastase (peptide 10 μM): 5.4 ± 0.3%
Residual activity of elastase (peptide 100 μM): 0.2 ± 0.1%
Residual activity of elastase (peptide 1000 μM): 0.0 ± 0.0%
Ki (read-out: Ki): 0.33 µM

Second part, the compound after the results:

IC50: > 50 µM
Compound: CC[C@H](C)[C@@H]1NC(=O)[C@@H]2CCCN2C(=O)[C@@H]2CCCN2C(=O)[C@H]([C@@H](C)CC)NC(=O)[C@H](CO)NC(=O)[C@H](C)NC(=O)[C@H]([C@@H](C)O)NC(=O)[C@H](CCC(=O)O)NC(=O)[C@H](CCCNC(=N)N)NC(=O)CNC(=O)[C@@H](N)CSSC[C@@H](C(=O)N[C@@H](CCC(N)=O)C(=O)O)NC1=O [EC8] (H-CGRETASIPPICQ-OH; disulfide 1-12; N-terminus and C-terminus assumed)

IC50: > 50 µM
Compound: CC[C@H](C)[C@@H]1NC(=O)[C@H](CO)NC(=O)[C@H](C)NC(=O)[C@H]([C@@H](C)O)NC(=O)[C@H](CCC(=O)O)NC(=O)[C@H](CCCNC(=N)N)NC(=O)CNC(=O)[C@@H](N)CSSC[C@@H](C(=O)N[C@@H](CCCCN)C(=O)O)NC(=O)[C@H](CCC(N)=O)NC(=O)[C@@H]2CCCN2C(=O)[C@@H]2CCCN2C1=O [EC9] (H-CGRETASIPPQCK-OH; disulfide 1-12; N-terminus and C-terminus assumed)

IC50: > 50 µM
Compound: CC[C@H](C)[C@@H]1NC(=O)[C@H](CO)NC(=O)[C@H](C)NC(=O)[C@H]([C@@H](C)O)NC(=O)[C@H](CCC(=O)O)NC(=O)[C@H](CCCNC(=N)N)NC(=O)CNC(=O)[C@@H](N)CSSC[C@@H](C(=O)O)NC(=O)CNC(=O)[C@H](CCCCN)NC(=O)[C@H](CCC(N)=O)NC(=O)[C@@H]2CCCN2C(=O)[C@@H]2CCCN2C1=O [EC11] (H-CGRETASIPPQKGC-OH; disulfide 1-14; N-terminus and C-terminus assumed)

IC50: > 50 µM
Compound: CC[C@H](C)[C@@H]1NC(=O)[C@H](CO)NC(=O)[C@H](C)NC(=O)[C@H]([C@@H](C)O)NC(=O)[C@H](C)NC(=O)[C@H](Cc2ccc(O)cc2)NC(=O)CNC(=O)[C@@H](N)CSSC[C@@H](C(=O)N[C@@H](Cc2ccc(O)cc2)C(=O)O)NC(=O)[C@H](CCC(N)=O)NC(=O)[C@@H]2CCCN2C(=O)[C@@H]2CCCN2C1=O [EC15] (H-CGYATASIPPQCY-OH; disulfide 1-12; N-terminus and C-terminus assumed)

IC50: > 50 µM
Compound: CC[C@H](C)[C@@H]1NC(=O)[C@@H]2CCCN2C(=O)[C@@H]2CCCN2C(=O)[C@H]([C@@H](C)CC)NC(=O)[C@H](CO)NC(=O)[C@H](C)NC(=O)[C@H]([C@@H](C)O)NC(=O)[C@H](C)NC(=O)[C@H](CC(C)C)NC(=O)CNC(=O)CNC(=O)[C@@H](N)CSSC[C@@H](C(=O)N[C@@H](CCC(N)=O)C(=O)O)NC1=O [EC16] (H-CGGLATASIPPICQ-OH; disulfide 1-13; N-terminus and C-terminus assumed)

Reference: patent US20230416329A1, “A PEPTIDE WITH DISULFIDE BONDS AND INHIBITORY ACTIVITY AGAINST SERINE PROTEASES, DERIVED HYBRID PEPTIDES THEREOF, AND USES THEREOF” (INSTITUTE OF MATERIA MEDICA , CHINESE ACADEMY OF MEDICAL …, priority 2020, published 2023)
